The source of these data is US8557764B2, “Methods of modulating immune function” (The Regents of the University of Colorado, a body corporate, priority 2007, dated 2013).

No end group written: not given here. *: point of attachment. Biotin = O=C1N[C@H]2[C@H](CS[C@H]2CCCCC(=O)*)N1

The conditions of test [1]: relative to cyclosporin; cited from earlier work.
The test system of test [2] is cell surface CD74 on Raji or Daudi cells. Description: MKN1 (bioCLIP) effect on cell surface CD74 levels (flow cytometry). The class given is cell-based, human. The conditions noted are these: 24 and 48 hours. As to the method:
(§1) The ability of MKN1 (bioCLIP) to alter cell surface CLIP and CD74 levels was determined using Raji or Daudi cells.
(§2) Data were analyzed by histogram with Y axis represents cell number of the 5000 live cells versus the X axis which is a reflection of relative FITC fluorescence with either antibodies to CLIP or CD74. The distance between the histogram from the isotype control staining versus the histogram reflecting the specific stain and is a measure of level of cell surface CLIP or CD74 when staining a population of live Raji or Daudi cells.
(§3) Cell Culture Conditions: The Raji and Daudi cell lines were purchased from American Type Culture Collection, were thawed, and grown in RPMI 1640 medium supplemented with standard supplements, including 10% fetal calf serum, gentamycin, penicillin, streptomycin, sodium pyruvate, HEPES buffer, 1-glutamine, and 2-ME.
(§4) Protocol: Cells were plated into a 12 well plate with 3 mls total volume containing approximately 0.5×10^6/mL for Daudi cells and 0.5×10^6/mL for Raji cells. […]
(§5) Harvested cells were stained using standard staining procedure that called for a 1:100 dilution of Fitc-anti-human CLIP or CD74 antibody (Fitc, Pharmingen, Cat #554647) or isotype control. […] Samples were acquired and analyzed on a Coulter Excel Flow Cytometer.
On the technique in general: Flow cytometry measures light scatter and fluorescence of single cells or particles in a stream.

Test [3] deals with cell surface CLIP on Raji or Daudi cells. Description: MKN1 (bioCLIP) effect on cell surface CLIP levels (flow cytometry). The class given is cell-based, human. The settings on record: 24 and 48 hours. As to the method: as §1, §2, §3, §4, §5
The test system of test [4] is human B cell lines, Raji and Daudi. Description: Binding of biotinylated synthetic peptide to B cell lines (Streptavidin-PE flow cytometry). The class given is cell-based. The settings on record: 50 microMolar. As to the method: (§6) The ability of synthetic peptides to compete with binding of CLIP peptides and result in the cell surface expression of CD1d was determined.
(§7) Results: The results shown in FIG. 5 are expressed in histogram analyses. The Y axis represents cell number of the 5000 live cells versus the X axis which is a reflection of relative Fitc fluorescence versus Streptavidin-PE (eBioscience, Cat. #12-4317) that will bind with high affinity to cell-bound biotinylated peptides. The distance between the histogram from the isotype control staining versus the histogram reflecting the specific stain and is a measure of level of cell surface CD1d.
as §3
(§8) Protocol: Cells were plated into a 12 well plate with 3 mls total volume containing approximately 1.5×10^6/well for Daudi cells and 3.0×10^6/well for Raji cells. Treatment groups included no treatment as control and biotinylated […] […]
(§9) Harvested cells were stained using standard staining procedure that called for a 1:100 dilution of PE anti-CD1d. […] Samples were acquired and analyzed on a Coulter Excel Flow Cytometer.

Test [5] relates to cell surface CD1d on Raji and Daudi cells. Put plainly: Cell surface expression of CD1d after competing peptide treatment (flow cytometry). The conditions noted are these: 50 microMolar, both cell lines. The class given is cell-based, human. As to the method: as §6, §7, §3, §8, §9

Take `C=CC[C@@H]1/C=C(\C)C[C@H](C)C[C@H](OC)[C@H]2O[C@@](O)(C(=O)C(=O)N3CCCC[C@H]3C(=O)O[C@H](/C(C)=C/[C@@H]3CC[C@@H](O)[C@H](OC)C3)[C@H](C)[C@@H](O)CC1=O)[C@H](C)C[C@@H]2OC` [FK506, tacrolimus]: in test [1], the “immunosuppressive activity greater than cyclosporin” value is reported as 10-100 times.

As for “MKN1: 19 mer, Biotin at N-Terminal = Biotinylated CLIP; SGG GSK MRM ATP LLM QAL Y (SEQ ID NO. 5) (Biotin-SGGGSKMRMATPLLMQALY)”, the “cell surface CD74 levels” value in test [2] was “alters”. The “cell surface CLIP levels” value in test [3] is recorded as “alters”.

Turning to “Biotinylated FRIMAVLAS: biotinylated synthetic peptide FRIMAVLAS (SEQ ID NO. 2), also referred to as MKN 5 (also: biotinylated)”, the “binding of biotinylated peptide to the cell lines” value in test [4] (4 hours, Raji and Daudi) is recorded as “bound with high affinity”; in test [4] (24 hours) it was “Less binding”. The “cell surface expression of CD1d” value in test [5] (4 hours) is listed as “marginally”; in test [5] (24 hours) it was “slightly more”.
